Experimental findings from ChEMBL document CHEMBL5576073, “Design and synthesis of novel fluorene derivatives as inhibitors of pyruvate dehydrogenase kinase” (Bioorg Med Chem Lett, 2024) are described below.

Each structure is given as a SMILES string. pIC50: −log10 of the molar value. Converted amounts (≈) assume the structure as drawn. The source made the active and inactive calls. The rule behind the calls is not given here. Where only a bound is given, the exact number is not on record here.

Data set [1] in a line: Metabolic stability in human liver s9 fraction measured at 60 mins. It counts as ADME, subcellular. As to conditions: read-out: Stability.
Data set [2] can be described thus: Apparent permeability of compound in human Caco-2 cells. Type of data set: ADME, cell-based. On the technique in general: Passage across Caco-2 layers is used to estimate intestinal permeability.
A short description of data set [3]: Aqueous solubility of compound in PBS at pH 7.2. It counts as physicochemical.
Data set [4] concerns the target [Pyruvate dehydrogenase (acetyl-transferring)] kinase isozyme 2, mitochondrial (Homo sapiens, UniProt Q15119). As to the kind of experiment: Inhibition of human recombinant PDHK2 assessed as residual PDH activity in presence of ATP using sodium pyruvate/Coenzyme A/thiamine pyrophosphate as substrates incubated for 90 mins by UV-transparent microplate analysis.
Data set [5] in a line: Oral bioavailability in Sprague-Dawley rat at 10 mg/kg measured for 25 hrs by LC-MS/MS analysis. Type of data set: ADME, organism-based. As to conditions: in vivo.
Data set [6] in a line: Drug concentration in Sprague-Dawley rat at 10 mg/kg, po measured at 8 hrs by LC-MS/MS analysis. Type of data set: ADME, organism-based. As to conditions: in vivo, read-out: Drug uptake.
Data set [7] is described as follows: MRT in Sprague-Dawley rat at 1 mg/kg, iv measured for 25 hrs by LC-MS/MS analysis. Type of data set: ADME, organism-based. As to conditions: in vivo.
The nature of data set [8]: Volume of distribution at steady state in Sprague-Dawley rat at 1 mg/kg, iv measured for 25 hrs by LC-MS/MS analysis. It counts as ADME, organism-based. As to conditions: in vivo, read-out: Vdss.
For data set [9], the species on record is Rattus norvegicus. The data set can be described thus: Antidiabetic activity against Sprague-Dawley rat assessed as PDH activity in liver measured at 6 hrs. It counts as functional, organism-based. As to conditions: dose 0.1-10 mg/kg, route po.
Data set [10] is described as follows: Total body clearance in Sprague-Dawley rat at 1 mg/kg, iv measured for 25 hrs by LC-MS/MS analysis. Type of data set: ADME, organism-based. As to conditions: in vivo.
Data set [11] concerns Rattus norvegicus. The data set can be described thus: Antidiabetic activity against Zucker fatty rats assessed as decrease in glucose level in plasma at 10 mg/kg administered for 28 days. It counts as functional, organism-based. As to conditions: time 28.0 day.
The nature of data set [12]: AUC in Sprague-Dawley rat at 10 mg/kg, po measured for 25 hrs by LC-MS/MS analysis. It counts as ADME, organism-based. As to conditions: in vivo.
Data set [13] can be described thus: AUC in Sprague-Dawley rat at 1 mg/kg, iv measured for 25 hrs by LC-MS/MS analysis. It counts as ADME, organism-based. As to conditions: in vivo.
Data set [14] is described as follows: Cmax in Sprague-Dawley rat at 10 mg/kg, po measured for 25 hrs by LC-MS/MS analysis. Type of data set: ADME, organism-based. As to conditions: in vivo.
Data set [15] in a line: Drug concentration in Sprague-Dawley rat at 10 mg/kg, po measured at 25 hrs by LC-MS/MS analysis. Type of data set: ADME, organism-based. As to conditions: in vivo, read-out: Drug uptake.
Data set [16] has as its target [Pyruvate dehydrogenase (acetyl-transferring)] kinase isozyme 4, mitochondrial (Homo sapiens, UniProt Q16654). As to the kind of experiment: Inhibition of PDHK4 (unknown origin).

Sequence of [Pyruvate dehydrogenase (acetyl-transferring)] kinase isozyme 4, mitochondrial (Q16654 whole entry): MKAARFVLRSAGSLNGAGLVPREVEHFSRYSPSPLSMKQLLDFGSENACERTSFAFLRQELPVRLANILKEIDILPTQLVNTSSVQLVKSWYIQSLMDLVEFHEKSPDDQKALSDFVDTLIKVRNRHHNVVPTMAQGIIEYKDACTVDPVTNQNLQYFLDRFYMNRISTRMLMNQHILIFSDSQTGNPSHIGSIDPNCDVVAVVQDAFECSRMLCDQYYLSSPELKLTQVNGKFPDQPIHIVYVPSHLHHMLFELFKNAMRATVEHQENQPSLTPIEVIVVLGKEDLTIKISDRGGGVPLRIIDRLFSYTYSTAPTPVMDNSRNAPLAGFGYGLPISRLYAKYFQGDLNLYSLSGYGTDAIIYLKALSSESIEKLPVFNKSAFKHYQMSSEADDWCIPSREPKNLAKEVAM

On to `O=C(c1cc(-c2cnn(CCO)c2)c2c(c1)C(O)(C(F)(F)F)c1ccccc1-2)N1CCC1` (racemic), for which the remaining at 1 h in data set [1] was determined as 94%. The Papp in data set [2] was determined as 6.5 ×10⁻⁶ cm/s.

In [3], `O=C1CCCN1c1ccc2c(c1)C(O)(C(F)(F)F)c1ccccc1-2` (racemic) gave a solubility of 83 µM (≈ 27.7 µg/mL). Also, the remaining at 1 h in [1] was found to be 29%. The Papp in data set [2] was found to be 39.5 ×10⁻⁶ cm/s.

As to `OCCCCOc1ccc2c(c1)C(O)(C(F)(F)F)c1ccccc1-2` (racemic), the solubility in data set [3] was found to be 85 µM (≈ 28.8 µg/mL). In data set [2], the Papp turned out to be 48.3 ×10⁻⁶ cm/s.

The molecule `OC1(C(F)(F)F)c2ccccc2-c2ccccc21` showed a solubility in data set [3] of 87 µM (≈ 21.8 µg/mL). The Papp in [2] came to 56.8 ×10⁻⁶ cm/s. Besides, the pIC50 in data set [4] is 5.23.

On to `OC1(C(F)(F)F)c2ccccc2-c2c(-c3cnco3)cccc21` (racemic), for which, in data set [3], the solubility came to 17 µM (≈ 5.39 µg/mL). Besides, the remaining at 1 h in data set [1] is 61%. For the same molecule, the Papp in [2] stood at 51.1 ×10⁻⁶ cm/s.

For the molecule `Nc1nc(SCC(=O)c2ccccc2)nc2sc3c(c12)CCN(Cc1ccccc1)C3`, the solubility in data set [3] was at most 0.3 µM. In data set [1], the remaining at 1 h was 6%. Also, in data set [4], the pIC50 was 5.72.

As for `Cn1cc(-c2cccc3c2-c2ccccc2C3(O)C(F)(F)F)cn1` (racemic), in data set [3], the solubility turned out to be 6.9 µM (≈ 2.28 µg/mL). Moreover, in [1], the remaining at 1 h is 62%. In addition, the Papp in data set [2] worked out at 63.1 ×10⁻⁶ cm/s.

The molecule `COC(=O)c1ccc2c(c1)C(O)(C(F)(F)F)c1ccccc1-2` (racemic) showed a solubility in [3] of 45 µM (≈ 13.9 µg/mL). Moreover, the apparent permeability coefficient (Papp) in [2] worked out at 34.5 ×10⁻⁶ cm/s. The pIC50 in data set [4] was 6.22.

On to `Cc1cc(-c2cnn(CCO)c2)c2c(c1)C(O)(C(F)(F)F)c1ccccc1-2` (stereo not drawn), for which, in data set [5], the bioavailability was determined as 140%. Besides, the remaining at 1 h in [1] was found to be 83%. For the same molecule, in [6], the concentration at 8 h came to 3.1 µM. The molecule also displayed an MRT in data set [7] of 3.9 h. In addition, in [2], the Papp came out at 54.3 ×10⁻⁶ cm/s. Besides, the Vd in [8] came to 2.6 L/kg. In addition, the Activity result in the data set listed under Rattus norvegicus [9] is “Dose-Dependent Effect”. In addition, the pIC50 in [4] was 7.77; in [16], below 6.00. Moreover, the clearance in data set [10] was 11.7 mL/min/kg. Also, the result in the data set with Rattus norvegicus [11] was Active. Further, the values for the AUC at 25 h in [12] and in [13] were 57 µM·h and 4.1 µM·h, respectively. Also, the concentration in data set [14] peaked (Cmax) at 4.4 µM. For the same molecule, in [15], the concentration at 25 h worked out at 0.2 µM.

In data set [3], `COC(=O)c1cccc2c1-c1ccccc1C2(O)C(F)(F)F` (racemic) returned a solubility of 83 µM (≈ 25.6 µg/mL). In addition, in [2], the Papp amounted to 17.4 ×10⁻⁶ cm/s. Also, the pIC50 in data set [4] was 6.05.

In turn, `O=C(O)CCCOc1ccc2c(c1)C(O)(C(F)(F)F)c1ccccc1-2` (racemic) displayed a solubility in [3] of at least 95 µM. The remaining at 1 h in data set [1] was 92%. Moreover, the Papp in [2] amounted to 61.5 ×10⁻⁶ cm/s.

`OC1(C(F)(F)F)c2ccccc2-c2c(-c3cccnc3)cccc21` (racemic) displayed a solubility in data set [3] of 0.38 µM (≈ 0.124 µg/mL). Also, the remaining at 1 h in [1] amounted to 80%. For the same molecule, in data set [2], the Papp is 18 ×10⁻⁶ cm/s.

On to `O=C(c1ccc2c(c1)C(O)(C(F)(F)F)c1ccccc1-2)N1CCC1` (racemic), for which the solubility in data set [3] came out at 93 µM (≈ 31 µg/mL). Further, in [1], the remaining at 1 h was found to be 49%. In addition, the apparent permeability (Papp) in data set [2] was 47.5 ×10⁻⁶ cm/s. Also, in data set [4], the pIC50 was 6.77.

In turn, `CC(C)C1(O)c2ccccc2-c2ncccc21` (racemic) returned a solubility in [3] of 94 µM (≈ 21.2 µg/mL). Besides, in data set [1], the remaining at 1 h came to 97%. Also, the pIC50 in [4] was 4.92.

`OC1(C(F)(F)F)c2ccccc2-c2ccc(-c3ccccc3)cc21` (racemic) returned a solubility in data set [3] of at most 0.4 µM. Moreover, the Papp in [2] was found to be 9.8 ×10⁻⁶ cm/s.

Regarding `Cn1cc(-c2cc(OCCCC(=O)O)cc3c2-c2ccccc2C3(O)C(F)(F)F)cn1` (stereo not drawn), the remaining at 1 h in data set [1] was 91%. For the same molecule, in data set [2], the Papp was determined as 28.4 ×10⁻⁶ cm/s. In addition, the pIC50 in data set [4] is 7.70.

For `OCCn1cc(-c2cc(F)cc3c2-c2ccccc2C3(O)C(F)(F)F)cn1` (stereo not drawn), the remaining at 1 h in [1] was determined as 97%. Moreover, in [2], the Papp worked out at 59.8 ×10⁻⁶ cm/s. Further, the pIC50 in [4] is 7.70.

Turning to `CC(C)(C)Cn1cc(-c2cccc3c2-c2ccccc2C3(O)C(F)(F)F)cn1` (racemic), the solubility in [3] was at most 0.4 µM. In data set [1], the remaining at 1 h worked out at 84%. For the same molecule, in data set [2], the Papp was determined as 16.2 ×10⁻⁶ cm/s.

`OC1(C(F)(F)F)c2ccccc2-c2c(-c3cncnc3)cccc21` (racemic) registered a solubility in data set [3] of 4.6 µM (≈ 1.51 µg/mL). The remaining at 1 h in [1] came to 96%. Moreover, the Papp in data set [2] is 56.2 ×10⁻⁶ cm/s.

In turn, `CNC(=O)Cn1cc(-c2cccc3c2-c2ccccc2C3(O)C(F)(F)F)cn1` (racemic) gave a solubility in [3] of 94 µM (≈ 36.4 µg/mL). Besides, the remaining at 1 h in data set [1] came to 93%. In [2], the Papp stood at 51.2 ×10⁻⁶ cm/s.

As for `OCCn1cc(-c2cccc3c2-c2ccccc2C3(O)C(F)(F)F)cn1` (racemic), the solubility in data set [3] came to 92 µM (≈ 33.2 µg/mL). In [1], the remaining at 1 h was 94%. In data set [2], the Papp was 68 ×10⁻⁶ cm/s.

Usually Papp stands for a coefficient for how fast a substance crosses the barrier. What is called solubility is how much of the substance goes into solution per volume. Read a low solubility as a poorly soluble substance. By pIC50 is commonly meant the IC50 on a negative log10 scale, so that one unit is a factor of ten. The MRT is a mean duration of stay, worked out from the concentration-time curve. One may read the clearance as the volume of plasma or blood freed of the substance per unit of time. Higher therefore signals a high capacity for elimination. By AUC is commonly meant the area under the concentration-time curve, a measure of exposure. Read a high AUC as high exposure. As a reminder, the Cmax is the maximum level reached in the sampled fluid or tissue.
